From US11779600B2, “Methods of treating or preventing alzheimer's disease and associated conditions” (CEDARS-SINAI MEDICAL CENTER, priority 2016, dated 2023)

System: OPN
Test: OPN expression in primary bone marrow-derived macrophages (qICC, ELISA)
Type: cell-based, mouse
Conditions: for increase in OPN production/expression (qICC): without Aβ, vs untreated MΦ^BM (FIG. 14D)
Method: For MΦ^BM cells, the cells in each well were lifted by 2 mM EDTA-PBS, collected in tubes, and centrifuged. Cell pellets were lysed and re-suspended in a cocktail of RIPA buffer supplemented with 1% protease inhibitors (Thermo Scientific), and stored at −80° C. until use.
To test amyloid-β phagocytosis by macrophage, in repeated experiments monocytes were isolated from the bone marrow of wild-type mice (n=18 mice) and differentiated into macro-phage by 7-day cultivation in complete RPMI-1640 medium (#21870; Life Technologies) with 10% serum and 20 ng/ml MCSF (#315-02; PeproTech). Bone marrow-derived macrophages (MΦBM) were generated from femurs and tibiae cultured for 6-7 days in complete RPMI 1640 medium (Life Technologies) with 10% FBS, 100 U/ml penicillin, 100 μg/ml streptomycin, 2 mM L-glutamine and 20 ng/ml MCSF (PeproTech). Primary cultures of macrophage were then plated at 1.2×10^5 cells per well (3-4 wells for each condition) in 24-well tissue-culture plates on glass cover-slips overnight. Next, macrophages were either treated with 30 μg/ml GA (Copaxone®; TEVA Neuroscience), Brefeldin A (BFA; Sigma, 1X), or 10 μM Minocycline (Sigma) for the duration of 1, 3, or 24 h, or not treated (control group). Before addition of fibrillar amyloid-β1-42, the cells were chilled in a 4° C. ice bath for 5 min; immediately after addition of the preformed fibrillar amyloid-β1-42 (100 nM), the plates were centrifuged at 515g in 25° C. followed by incubation at 37° C. for 30 or 60 min. The cells were then rinsed with amyloid-β-free medium to remove non-incorporated amyloid-β and later washed twice with PBS. Methanol (99.8%) at −20° C. for 20 min or 4% paraformaldehyde at room temperature for 12 min was used for fixation of the cells followed by repeated washes with PBS. For immunostaining, the cells were first stained using the mouse anti-human amyloid-β mAb clone 6E10 (1:100; SIG-39320; Covance), rat anti-CD68 mAb clone FA-11 (1:100; ab53444; Abcam), rat anti-CD36 mAb clone MF3 (1:200; ab80080; Abcam), rat anti-CD204 scavenger receptor type I/II (SCARA1) mAb (1:100; MCA1322; AbD Serotec), rabbit anti-CD163 pAb (1:100; orb13303; Biorbyt), and goat anti-MMP-9 pAb (1:100; AF909; R&D systems). Secondary polyclonal antibodies included donkey anti-mouse, anti-rat, anti-rabbit, and anti-goat conjugated with Cy2, Cy3 or Cy5 (1:200; Jackson ImmunoResearch Laboratories). The cells were mounted using ProLong® Gold with DAPI (Molecular Probes, Life Technologies). Several fields (minimum n=5 randomly selected per group) were obtained from each well using a Carl Zeiss Axio Imager Z1 ApoTome-equipped microscope (an average of 120 cells in each field). Images were obtained using the same exposure time in each occasion. The fluorescent signal and its total area were determined and quantified by the conversion of individual images to greyscale and standardizing to baseline using histogram-based thresholds with NIH ImageJ software. The ‘mean area per cell’ was a result of a numerical average of the individual cell's immunoreactive area per field. The ‘area/cell’ measures the total fluorescent signal (area) divided by the total number of cells (DAPI count) of the same field (image). For all experiments, the investigators were blinded to the treatment condition.
To investigate the impact of GA on OPN expression in macrophages, a series of in vitro studies using primary MΦ^BM was performed. BM was isolated from young WT donor mice, differentiated into mature macrophages, pretreated overnight with GA ([…]; GA-MΦ^BM) and exposed to pre-formed Aβ1-42 fibrils. […] Since MΦ^BM constitutively express and secrete OPN into the extracellular matrix, OPN production by inhibiting secretion with Brefeldin A (BFA) pretreatment was assessed (FIG. 14C). Indeed, newly generated OPN was trapped by BFA, increasing its intracellular accumulation. […] GA further elevated OPN production in BFA-pretreated MΦ^BM (FIG. 14C). […]

Substance: glatiramer acetate [GA]
- increase in OPN in GA-treated MΦ (FIG. 5D): 2 fold
- increase of OPN expression in MΦ^BM (GA pretreated, 100 nM fibrillar Aβ1-42 for 30 min, qICC and ELISA): 2.3-2.7 fold
- increased OPN levels in cell lysates (ELISA) (with BFA (FIG. 14E)): 1.4 fold
- increase in OPN production/expression (qICC) (with BFA, GA overnight 30 µg/ml): 1.6 fold
- increased OPN levels in cell lysates (ELISA) (without BFA (FIG. 14E)): 2.3 fold
- increase in OPN production/expression (qICC) (without BFA, GA overnight): 2.5 fold
